The record followed here is PubChem BioAssay (NCI).

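Grown in 96-well plates, cells were treated for 48 hours with each compound at five concentrations. Insufficient inhibition: endpoint recorded as highest concentration tested. Abbreviation: GI50, concentration required for 50% inhibition of growth. TGI marks complete inhibition of growth.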

Among the test systems are K-562 leukemia; SNB-19 CNS; SK-MEL-2 melanoma; OVCAR-3 ovarian; HT29 colon; SF-295 CNS; NCI-H23 lung; 786-0 renal; HOP-92 NSCLC.
What all share (experiment): DTP human tumour cell line panel, 48 h

Usually GI50 stands for the concentration at which growth is held to half of that of the control. Usually TGI stands for the concentration at which net growth stops. A low value points to greater sensitivity of the cells. As for `C=C(CNC(=O)Nc1ccc(-c2ccccc2)cc1)c1ccc(C(=O)Nc2ccccc2N)cc1`, the GI50 in the assay with K-562 leukemia is 40.6 µM; in the assay with SNB-19 CNS, 98.7 µM; in the assay on SK-MEL-2 melanoma, more than 100 µM; with OVCAR-3 ovarian it was more than 100 µM; in the assay with HT29 colon, more than 100 µM; with SF-295 CNS it was more than 100 µM. For the same compound, the values for the GI50 with NCI-H23 lung and in the assay on 786-0 renal were 85.3 µM and more than 100 µM, respectively. For the same compound, the TGI in the assay with K-562 leukemia, in the assay on SNB-19 CNS, with SK-MEL-2 melanoma, in the assay with OVCAR-3 ovarian, in the assay on HT29 colon and in the assay on SF-295 CNS was more than 100 µM in each case. Also, the TGI in the assay with NCI-H23 lung and in the assay with 786-0 renal was more than 100 µM each time.
For the compound `O=C(c1ccc2ccccc2c1O)N1CCCCC1`, the TGI with K-562 leukemia is 75.3 µM; with SNB-19 CNS, more than 100 µM; in the assay on SK-MEL-2 melanoma, more than 100 µM; in the assay with HOP-92 NSCLC, more than 100 µM; with HT29 colon, more than 100 µM; in the assay with SF-295 CNS, more than 100 µM. The TGI was 90 µM in the assay on NCI-H23 lung and more than 100 µM with 786-0 renal.
As to `COc1cc(CCc2cccnc2)cc(OC)c1OC`, the TGI with K-562 leukemia, with SNB-19 CNS, with HOP-92 NSCLC, in the assay on OVCAR-3 ovarian, with HT29 colon and in the assay with SF-295 CNS was more than 100 µM in each case. The total growth inhibition concentration (TGI) with NCI-H23 lung and in the assay on 786-0 renal was more than 100 µM each time.
For `CCOc1ccc(NC(=O)CC2SC(=Nc3ccc(Cl)cc3)NC2=O)cc1` (stereo unspecified), the concentration for total growth inhibition (TGI) was 76.4 µM with K-562 leukemia; more than 100 µM with SNB-19 CNS; more than 100 µM in the assay with SK-MEL-2 melanoma; more than 100 µM in the assay on OVCAR-3 ovarian; more than 100 µM in the assay with HT29 colon; more than 100 µM in the assay on SF-295 CNS. Also, the TGI with NCI-H23 lung and with 786-0 renal was more than 100 µM each time.
On to `O=C(c1ccccc1)c1c(NCC(O)CN2CCCC2)n(Cc2ccccc2)c(=O)n(Cc2ccccc2)c1=O` (stereo unspecified), for which the GI50 with K-562 leukemia was 23.9 µM; in the assay on SNB-19 CNS, 63.4 µM; with SK-MEL-2 melanoma it was 20.5 µM; in the assay with OVCAR-3 ovarian, 18.4 µM; in the assay with HT29 colon it was 17.3 µM; in the assay on SF-295 CNS it was 18 µM. In addition, the GI50 is 20 µM in the assay on NCI-H23 lung and 18.9 µM in the assay on 786-0 renal. Moreover, the TGI in the assay with K-562 leukemia was 99.1 µM; with SNB-19 CNS, more than 100 µM; in the assay with SK-MEL-2 melanoma, 39 µM; in the assay on OVCAR-3 ovarian, 36.2 µM; in the assay with HT29 colon it was 33.6 µM; in the assay with SF-295 CNS it was 33.7 µM. For the same compound, the results for the TGI in the assay with NCI-H23 lung and in the assay with 786-0 renal were 44.1 µM and 35.5 µM, respectively.
For the compound `COc1cccc([C@H]2CC(=O)c3cc4c(cc3N2)OCO4)c1`, the TGI is 1.81 µM in the assay on SNB-19 CNS; more than 100 µM in the assay with HOP-92 NSCLC; more than 100 µM in the assay on OVCAR-3 ovarian; 0.425 µM in the assay on HT29 colon; more than 100 µM in the assay on SF-295 CNS; more than 100 µM with 786-0 renal. Besides, the GI50 was 0.0415 µM with OVCAR-3 ovarian, 0.0958 µM with SF-295 CNS and 0.0789 µM in the assay with 786-0 renal.
Consider `O=P([O-])(O)OP(=O)([O-])O.[NH-][C@H]1CCCC[C@@H]1[NH-].[OH-].[OH-].[Pt+4]`, for which the GI50 with K-562 leukemia is 92.9 µM; in the assay on SNB-19 CNS, 21.7 µM; in the assay with HOP-92 NSCLC it was 22 µM; in the assay with OVCAR-3 ovarian it was 21 µM; in the assay on HT29 colon it was 59.6 µM; in the assay on SF-295 CNS, 19.8 µM. In addition, the GI50 is 20.8 µM with NCI-H23 lung and 29.5 µM in the assay with 786-0 renal. The total growth inhibition concentration (TGI) with K-562 leukemia was more than 100 µM; with SNB-19 CNS it was 49.7 µM; with HOP-92 NSCLC it was 60.1 µM; with OVCAR-3 ovarian, 39 µM; in the assay with HT29 colon it was more than 100 µM; in the assay with SF-295 CNS, 44.1 µM. The values for the TGI in the assay on NCI-H23 lung and in the assay on 786-0 renal were 46.1 µM and 76.2 µM, respectively.
In the case of `NS(=O)(=O)c1ccc(NC(=O)c2ccc(NC3=C(Cl)C(=O)N(Cc4ccccc4)C3=O)cc2)cc1`, the GI50 in the assay with K-562 leukemia was 3.26 µM; with SNB-19 CNS, more than 100 µM; in the assay on HOP-92 NSCLC, 10.9 µM; in the assay on OVCAR-3 ovarian it was 1.89 µM; in the assay on HT29 colon, 5.92 µM; in the assay on SF-295 CNS, 3.03 µM. The GI50 in the assay on NCI-H23 lung was 3.42 µM; in the assay on 786-0 renal it was 3.38 µM. Besides, the TGI was more than 100 µM in the assay on K-562 leukemia; more than 100 µM in the assay with SNB-19 CNS; 31.3 µM in the assay on HOP-92 NSCLC; 7.88 µM with OVCAR-3 ovarian; 17 µM in the assay on HT29 colon; 17.8 µM with SF-295 CNS. In addition, the total growth inhibition concentration (TGI) in the assay with NCI-H23 lung was 14.3 µM; with 786-0 renal, 12.5 µM.
Turning to `COc1cc2c(cc1O)C=NCC2`, the TGI in the assay with K-562 leukemia, in the assay on SNB-19 CNS, in the assay on SK-MEL-2 melanoma, with HOP-92 NSCLC, with OVCAR-3 ovarian and with SF-295 CNS was more than 100 µM throughout. The total growth inhibition concentration (TGI) in the assay on NCI-H23 lung and with 786-0 renal was more than 100 µM in each case.
Regarding `O=C(O)CN(c1ccccc1)S(=O)(=O)c1ccc(NC(=O)c2ccccc2)cc1`, the total growth inhibition concentration (TGI) in the assay on K-562 leukemia, in the assay with SNB-19 CNS, in the assay with SK-MEL-2 melanoma, in the assay with HOP-92 NSCLC, in the assay with NCI-H23 lung and in the assay on 786-0 renal was more than 100 µM in each case.
